# Measured values from a melting point compilation (Tetko et al.).
row,Compound,melting point [°C]
1,O=C(O)CSc1ccc(Cl)cc1[N+](=O)[O-],159 to 161
2,CCNS(=O)(=O)c1ccc(C)c(C(=O)O)c1,181 to 183
3,Cc1ccc(-n2nc(C(=O)O)cc2C)cc1,149 to 151
4,CC(C)(C)OC(=O)N1CCC2(C1)NC(=O)NC2=O (configuration not stated),214 to 216
5,N#Cc1ccc(NC(=O)CCCCl)cc1,114 to 116
6,O=C(O)CCc1cc(Br)cs1,76 to 78
7,CC(C)(C)OC(=O)CNc1ccc2c(c1)OCO2,70 to 72
8,Nc1nc2cc(S(=O)(=O)N3CCCC3)ccc2o1,240 to 242
9,COC(=O)c1ccccc1-c1ccc(C=O)o1,68 to 72
10,CNc1ncc(C(=O)O)s1,159 to 161
11,O=C(CCCl)N1CCN(c2ccccn2)CC1,97 to 99
12,COc1ccc(C(NC(=O)CCl)c2ccc(OC)cc2)cc1,118 to 120
13,O=C1C(Br)CCN1c1cccc([N+](=O)[O-])c1 (configuration not stated),104 to 106
14,O=C(O)C1CCN(S(=O)(=O)Cc2ccccc2)CC1,191 to 193
15,COC(=O)C1CCN(c2nc3ccccc3o2)CC1,106 to 108
16,CCCc1ccc2c(c1)C(=O)C(=O)N2,104 to 106
17,Cc1cc(C(=O)CCl)c(C)n1CCC(C)C,55 to 57
18,O=C(NO)c1c(F)cccc1Cl,149 to 151
19,Cc1ccc(NC(=O)NC(=O)CCl)cc1C,144 to 146

row,Compound,melting point [°C]
1,CC(=O)c1c(C)[nH]c(C(=O)CCl)c1C,170 to 180
2,NC(=S)N1CCCC1,140 to 142
3,ON=Cc1ccc(OCc2ccccn2)cc1,154 to 156
4,Cc1cc(Cl)c2cc(F)c(F)c(F)c2n1,73 to 75
5,CCc1nc(C(=O)O)c[nH]1,239 to 241
6,FC(F)(F)c1cccc2c(Cl)ncnc12,144 to 146
7,CC(C)n1c(=O)[nH]c2cc(C(=O)O)ccc2c1=O,332 to 334
8,O=c1[nH]nnn1-c1cccs1,151 to 153
9,Clc1csc(Cl)n1,42 to 46
10,Nc1nc(-c2ccc3c(c2)OCCO3)n[nH]1,178 to 180
11,O=C1C(=O)N(CO)c2ccccc21,157 to 159
12,Cc1ccc(S(=O)(=O)NC(C)C)cc1C(=O)O,162 to 164
13,O=[N+]([O-])c1[nH]cnc1-c1ccc(F)cc1,290 to 292
14,O=C(O)C1(C(F)(F)F)CCN(Cc2ccccc2)C1 (configuration not stated),210 to 212
15,Nc1nonc1-c1ccccc1,96 to 98
16,Cc1ccc2c(CC(=O)O)coc2c1C,148 to 152
17,N#Cc1ccc(Oc2ccccc2O)c(F)c1,97 to 99
18,CCOc1cc(C(N)=NO)cc(Br)c1O,157 to 159
19,NCC1(C(N)=O)CCOCC1,113 to 115

row,Compound,melting point [°C]
1,CNc1ccc(S(C)(=O)=O)cc1,126 to 128
2,COc1ccc(S(=O)(=O)N2CCOCC2)cc1NC(=O)CCl,180 to 182
3,CC(Cl)C1CC(c2ccccc2)=NO1 (configuration not stated),59 to 61
4,O=C(O)/C=C/S(=O)(=O)c1ccccc1,190 to 192
5,COc1ccccc1NS(=O)(=O)c1ccc(C(=O)O)cc1,201 to 203
6,NC(=O)C1CCN(c2ccccc2N)CC1,199 to 201
7,CNc1ccc(C=O)cc1[N+](=O)[O-],118 to 120
8,O=C(O)C1CCSCC1,109 to 111
9,O=c1[nH]c(-c2cccnc2)cs1,225 to 227
10,O=C(O)c1cc([N+](=O)[O-])c(F)c([N+](=O)[O-])c1,237 to 239
11,CS(=O)(=O)CCc1ccc(N)cc1,93 to 95
12,N#Cc1ccc(CO)cc1,39 to 43
13,O=C(O)CSc1nnc(-c2ccc(F)cc2)o1,140 to 142
14,N#Cc1ccc(Oc2ccc(F)c(Cl)c2)c(F)c1,97 to 99
15,CS(=O)(=O)c1cccs1,43 to 45
16,COc1cc(NS(=O)(=O)c2ccc(N)cc2OC)cc(OC)c1,177 to 179
17,C=CC(=O)Nc1cccc(Br)c1,122 to 124
18,O=C(O)c1ccsc1C(=O)O,268 to 270
19,NNC(=O)c1n[nH]c(=O)c2ccccc12,239 to 241
